Laboratory results as given in US5977065A, “Bacterial nitroreductase for the reduction of CB1954 and analogues thereof to a cytotoxic form” (Cancer Research Campaign Technology Limited, priority 1991, dated 1999).

Key:
V79 cells [1] = experiment: Survival (colony-forming ability) of V79 cells treated with CB 1954 in the presence of E. coli B nitroreductase (Table 4); assay type: cell-based, Hamster; conditions: 500 μM NADH
Protocol: E. coli B nitroreductase. All treatments were for 2 hours at 37°
cells were then plated out for their resulting colony-forming ability.
nitroreductase concentration was 2 μg/ml and NADH was used as a […]

V79 cells [2] = experiment: Survival (colony forming ability) of V79 cells with enzyme-activated prodrugs (Table 8); assay type: cell-based; conditions: 500 μM NADH alone
Protocol: Generation of cytotoxicity by the action of the E. coli nitroreductase of Example 1 upon the prodrugs 4-[bis(2-chloroethyl)amino]phenylcarbamic acid 4'-nitrobenzyl ester (I where R^1 NH2 =III) and N-4-nitrobenzyloxy-carbonyl-actinomycin D (V) are shown in Table 8.
The effect of enzyme-activated prodrugs on the survival of V79
cells. 1 ml volumes of V79 cells (2 × 10^5 /ml) were incubated
with prodrug, 500 μM NADH, and 10 μg/ml enzyme. After a 2 hour
incubation at 37° C., the cells were harvested and assayed for
their colony forming ability, and the supernatant assayed for
the concentration of remaining prodrug by HPLC.

MAWI cells = experiment: Survival (colony forming ability) of MAWI cells with enzyme-activated prodrugs (Table 7); assay type: cell-based, human; conditions: 500 μM NADH alone
Protocol: The effect of enzyme-activated prodrugs on the survival of MAWI
cells. 1 ml volumes of MAWI cells (2 × 10^5 /ml) were
with 50 μM prodrug, 500 μM NADH, and 10 μg/ml the enzyme of
Example 1. After a 2 hour incubation at 37° C., the cells were
harvested and assayed for their colony forming ability, and the
supernatant assayed for the concentration of remaining prodrug

[3] = target: T1, Walker NAD(P)H dehydrogenase (quinone) EC 1.6.99.2 (Rattus norvegicus, UniProt P05982); experiment: Enzyme kinetic studies; assay type: biochemical
T1 construct: the enzyme isolated from the Walker tumour, EC.1.6.99.2; from tissue; host or cells: Walker tumour (Walker cell)
T1 sequence (P05982 2-274 limits assumed): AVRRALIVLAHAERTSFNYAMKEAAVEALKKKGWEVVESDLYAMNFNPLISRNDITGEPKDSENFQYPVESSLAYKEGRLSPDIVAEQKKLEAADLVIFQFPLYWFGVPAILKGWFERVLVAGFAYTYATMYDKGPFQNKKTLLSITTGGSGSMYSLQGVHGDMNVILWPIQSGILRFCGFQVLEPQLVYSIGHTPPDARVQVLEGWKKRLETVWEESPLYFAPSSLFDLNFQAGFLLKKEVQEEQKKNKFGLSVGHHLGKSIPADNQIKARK
Protocol: Quinone reductase activities were assayed by a spectrophotometric method using menadione as a substrate and cytochrome c as a terminal electron acceptor as described in Knox et al, Biochem. Pharmacol., 37, 4671-4677, 1988. Initial rates of reaction were determined by linear regression analysis (r>0.995) and kinetic parameters determined from the resulting plots as described by Roberts et al, Biochem. Pharmacol. 38, 4137-4143, 1989. Protein concentration was determined using the a conventional protein assay (Bio-Rad) calibrated against bovine serum albumin.
Kinetic parameters for the E. coli nitroreductase and Walker NAD(P)H, dehydrogenase (quinone) EC. […] The absolute rates of reduction of CB 1954 (i.e. under saturating conditions) by the two enzymes is their kcat values and this is 90 fold higher for the E. coli nitroreductase.

E. coli B nitroreductase [4] = target: T2, E. coli B nitroreductase (Escherichia coli, UniProt P38489); experiment: Enzyme kinetic and inhibition studies; assay type: biochemical
T2 construct: endogenous in cells; host or cells: E. coli B cell paste; endogenous enzyme purified by Phenyl-Sepharose and Q-Sepharose chromatography, not recombinant
T2 sequence (P38489 whole entry): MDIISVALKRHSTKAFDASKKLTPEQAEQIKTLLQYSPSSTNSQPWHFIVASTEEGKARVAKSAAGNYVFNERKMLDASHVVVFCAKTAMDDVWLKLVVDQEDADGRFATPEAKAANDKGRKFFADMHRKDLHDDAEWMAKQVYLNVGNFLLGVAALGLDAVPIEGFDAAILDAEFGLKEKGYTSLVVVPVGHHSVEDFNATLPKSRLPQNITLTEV
Protocol: Protein concentration was determined using the a conventional protein assay (Bio-Rad) calibrated against bovine serum albumin.

E. coli B nitroreductase [5] = target: T2, E. coli B nitroreductase; experiment: Formation of mitomycin C by the nitroreductase upon prodrug VII (HPLC); assay type: biochemical; conditions: VII 100 μM, 500 μM NADH, enzyme 5 μg/ml, pH7, 37° C.
Protocol: Prodrug VII (100 μM) and cofactor (500 μM NADH) were incubated with enzyme (5 μg/ml E. coli B nitroreductase of Example 1) in 10 mM sodium phosphate buffer (pH7) in air at 37° C. At various times aliquots (10 μl) were injected onto a Partisphere C18 reverse-phase (150×4.7mm) HPLC column and eluted isocratically (2.0 ml/min) with 50% methanol in water. The eluate was continuously monitored for absorption at 260 and 340 nm and the concentration of the drugs calculated by integration of the peak corresponding to the compound on the HPLC trace.

NC(=O)C1=CN([C@@H]2O[C@H](COP(=O)(O)OP(=O)(O)OC[C@H]3O[C@@H](n4cnc5c(N)ncnc54)[C@H](O)[C@@H]3O)[C@@H](O)[C@H]2O)C=CC1 [NADH]
% SURVIVAL (V79 cells [1]): 100%
% SURVIVAL (V79 cells [2]): 100%
% SURVIVAL (MAWI cells): 100%
Km [3]: 75 µM
Km of the nitroreductase for NADH less than the Walker enzyme (E. coli B nitroreductase [4]): about 10 fold

COC12C(COC(N)=O)C3=C(C(=O)C(C)=C(N)C3=O)N1CC1C2N1C(=O)OCc1ccc([N+](=O)[O-])cc1 (stereo not drawn) [VII, N-4-Nitrobenzyloxycarbonyl-mitomycin C]
release of mitomycin C from the prodrug (E. coli B nitroreductase [5]): Only in the presence of the enzyme is mitomycin C released
